Assay results from BigSolDB 2.1.

Cc1c(C(=O)O)cc([N+](=O)[O-])cc1[N+](=O)[O-]
solubility (mole fraction) (in acetonitrile, 288.15 K): 0.0071
solubility (mole fraction) (in acetonitrile, 293.15 K): 0.0084
solubility (mole fraction) (in acetonitrile, 298.15 K): 0.00994
solubility (mole fraction) (in acetonitrile, 303.15 K): 0.012
solubility (mole fraction) (in acetonitrile, 308.15 K): 0.0145
solubility (mole fraction) (in acetonitrile, 313.15 K): 0.0176
solubility (mole fraction) (in acetonitrile, 318.15 K): 0.0209
solubility (mole fraction) (in acetonitrile, 323.15 K): 0.0248
solubility (mole fraction) (in acetonitrile, 328.15 K): 0.0292
solubility (mole fraction) (in acetonitrile, 333.15 K): 0.0341
solubility (mole fraction) (in cyclohexane, 288.15 K): 1.4e-05
solubility (mole fraction) (in cyclohexane, 293.15 K): 1.96e-05
solubility (mole fraction) (in cyclohexane, 298.15 K): 2.69e-05
solubility (mole fraction) (in cyclohexane, 303.15 K): 3.64e-05
solubility (mole fraction) (in cyclohexane, 308.15 K): 4.87e-05
solubility (mole fraction) (in cyclohexane, 313.15 K): 6.37e-05
solubility (mole fraction) (in cyclohexane, 318.15 K): 8.12e-05
solubility (mole fraction) (in cyclohexane, 323.15 K): 0.000103
solubility (mole fraction) (in cyclohexane, 328.15 K): 0.000131
solubility (mole fraction) (in cyclohexane, 333.15 K): 0.000166
solubility (mole fraction) (in ethanol, 288.15 K): 0.0467
solubility (mole fraction) (in ethanol, 293.15 K): 0.0526
solubility (mole fraction) (in ethanol, 298.15 K): 0.0604
solubility (mole fraction) (in ethanol, 303.15 K): 0.0695
solubility (mole fraction) (in ethanol, 308.15 K): 0.0783
solubility (mole fraction) (in ethanol, 313.15 K): 0.0882
solubility (mole fraction) (in ethanol, 318.15 K): 0.099
solubility (mole fraction) (in ethanol, 323.15 K): 0.11
solubility (mole fraction) (in ethanol, 328.15 K): 0.123
solubility (mole fraction) (in ethanol, 333.15 K): 0.134
solubility (mole fraction) (in ethyl acetate, 288.15 K): 0.0237
solubility (mole fraction) (in ethyl acetate, 293.15 K): 0.0271
solubility (mole fraction) (in ethyl acetate, 298.15 K): 0.0312
solubility (mole fraction) (in ethyl acetate, 303.15 K): 0.0359
solubility (mole fraction) (in ethyl acetate, 308.15 K): 0.041
solubility (mole fraction) (in ethyl acetate, 313.15 K): 0.0467
solubility (mole fraction) (in ethyl acetate, 318.15 K): 0.0536
solubility (mole fraction) (in ethyl acetate, 323.15 K): 0.0611
solubility (mole fraction) (in ethyl acetate, 328.15 K): 0.0694
solubility (mole fraction) (in ethyl acetate, 333.15 K): 0.0781
solubility (mole fraction) (in isopropanol, 288.15 K): 0.0102
solubility (mole fraction) (in isopropanol, 293.15 K): 0.0121
solubility (mole fraction) (in isopropanol, 298.15 K): 0.0147
solubility (mole fraction) (in isopropanol, 303.15 K): 0.017
solubility (mole fraction) (in isopropanol, 308.15 K): 0.0202
solubility (mole fraction) (in isopropanol, 313.15 K): 0.0232
solubility (mole fraction) (in isopropanol, 318.15 K): 0.0276
solubility (mole fraction) (in isopropanol, 323.15 K): 0.0327
solubility (mole fraction) (in isopropanol, 328.15 K): 0.0384
solubility (mole fraction) (in isopropanol, 333.15 K): 0.0442
solubility (mole fraction) (in n-butanol, 288.15 K): 0.0109
solubility (mole fraction) (in n-butanol, 293.15 K): 0.0129
solubility (mole fraction) (in n-butanol, 298.15 K): 0.0152
solubility (mole fraction) (in n-butanol, 303.15 K): 0.0179
solubility (mole fraction) (in n-butanol, 308.15 K): 0.0209
solubility (mole fraction) (in n-butanol, 313.15 K): 0.0243
solubility (mole fraction) (in n-butanol, 318.15 K): 0.0284
solubility (mole fraction) (in n-butanol, 323.15 K): 0.034
solubility (mole fraction) (in n-butanol, 328.15 K): 0.0393
solubility (mole fraction) (in n-butanol, 333.15 K): 0.0457
solubility (mole fraction) (in n-heptanol, 288.15 K): 0.0128
solubility (mole fraction) (in n-heptanol, 293.15 K): 0.0146
solubility (mole fraction) (in n-heptanol, 298.15 K): 0.017
solubility (mole fraction) (in n-heptanol, 303.15 K): 0.0208
solubility (mole fraction) (in n-heptanol, 308.15 K): 0.025
solubility (mole fraction) (in n-heptanol, 313.15 K): 0.0295
solubility (mole fraction) (in n-heptanol, 318.15 K): 0.0341
solubility (mole fraction) (in n-heptanol, 323.15 K): 0.0396
solubility (mole fraction) (in n-heptanol, 328.15 K): 0.0458
solubility (mole fraction) (in n-heptanol, 333.15 K): 0.0524
solubility (mole fraction) (in n-hexanol, 288.15 K): 0.00982
solubility (mole fraction) (in n-hexanol, 293.15 K): 0.0114
solubility (mole fraction) (in n-hexanol, 298.15 K): 0.0131
solubility (mole fraction) (in n-hexanol, 303.15 K): 0.0151
solubility (mole fraction) (in n-hexanol, 308.15 K): 0.0177
solubility (mole fraction) (in n-hexanol, 313.15 K): 0.0208
solubility (mole fraction) (in n-hexanol, 318.15 K): 0.0244
solubility (mole fraction) (in n-hexanol, 323.15 K): 0.0288
solubility (mole fraction) (in n-hexanol, 328.15 K): 0.0338
solubility (mole fraction) (in n-hexanol, 333.15 K): 0.0394
solubility (mole fraction) (in n-pentanol, 288.15 K): 0.012
solubility (mole fraction) (in n-pentanol, 293.15 K): 0.0138
solubility (mole fraction) (in n-pentanol, 298.15 K): 0.0165
solubility (mole fraction) (in n-pentanol, 303.15 K): 0.0193
solubility (mole fraction) (in n-pentanol, 308.15 K): 0.0226
solubility (mole fraction) (in n-pentanol, 313.15 K): 0.026
solubility (mole fraction) (in n-pentanol, 318.15 K): 0.0303
solubility (mole fraction) (in n-pentanol, 323.15 K): 0.0356
solubility (mole fraction) (in n-pentanol, 328.15 K): 0.0414
solubility (mole fraction) (in n-pentanol, 333.15 K): 0.0478
solubility (mole fraction) (in n-propanol, 288.15 K): 0.0126
solubility (mole fraction) (in n-propanol, 293.15 K): 0.0146
solubility (mole fraction) (in n-propanol, 298.15 K): 0.0169
solubility (mole fraction) (in n-propanol, 303.15 K): 0.0202
solubility (mole fraction) (in n-propanol, 308.15 K): 0.0239
solubility (mole fraction) (in n-propanol, 313.15 K): 0.0278
solubility (mole fraction) (in n-propanol, 318.15 K): 0.0326
solubility (mole fraction) (in n-propanol, 323.15 K): 0.0381
solubility (mole fraction) (in n-propanol, 328.15 K): 0.0442
solubility (mole fraction) (in n-propanol, 333.15 K): 0.0505
solubility (mole fraction) (in sec-butanol, 288.15 K): 0.0114
solubility (mole fraction) (in sec-butanol, 293.15 K): 0.0134
solubility (mole fraction) (in sec-butanol, 298.15 K): 0.0158
solubility (mole fraction) (in sec-butanol, 303.15 K): 0.0187
solubility (mole fraction) (in sec-butanol, 308.15 K): 0.0219
solubility (mole fraction) (in sec-butanol, 313.15 K): 0.0257
solubility (mole fraction) (in sec-butanol, 318.15 K): 0.03
solubility (mole fraction) (in sec-butanol, 323.15 K): 0.0349
solubility (mole fraction) (in sec-butanol, 328.15 K): 0.0405
solubility (mole fraction) (in sec-butanol, 333.15 K): 0.0467
solubility (mole fraction) (in toluene, 288.15 K): 0.0174
solubility (mole fraction) (in toluene, 293.15 K): 0.0207
solubility (mole fraction) (in toluene, 298.15 K): 0.0242
solubility (mole fraction) (in toluene, 303.15 K): 0.0284
solubility (mole fraction) (in toluene, 308.15 K): 0.0328
solubility (mole fraction) (in toluene, 313.15 K): 0.0377
solubility (mole fraction) (in toluene, 318.15 K): 0.0434
solubility (mole fraction) (in toluene, 323.15 K): 0.0493
solubility (mole fraction) (in toluene, 328.15 K): 0.0558
solubility (mole fraction) (in toluene, 333.15 K): 0.0628
solubility (mole fraction) (in water, 288.15 K): 1.67e-05
solubility (mole fraction) (in water, 293.15 K): 2.35e-05
solubility (mole fraction) (in water, 298.15 K): 3.5e-05
solubility (mole fraction) (in water, 303.15 K): 4.55e-05
solubility (mole fraction) (in water, 308.15 K): 5.87e-05
solubility (mole fraction) (in water, 313.15 K): 7.99e-05
solubility (mole fraction) (in water, 318.15 K): 0.000108
solubility (mole fraction) (in water, 323.15 K): 0.000137
solubility (mole fraction) (in water, 328.15 K): 0.000171
solubility (mole fraction) (in water, 333.15 K): 0.000218
